In patent publication US20230287336A1, “METHOD FOR IMPROVING FLAVONOID PHENYLPROPANOID COMPOUNDS IN SAUSSUREA INVOLUCRATA CELL CULTURE” (DALIAN PRACTICAL BIOTECHNOLOGY CO, .LTD, priority 2019, published 2023):
Read-outs that look alike come from different tables or passages of the source.

Columns and labels:
Type in all cases: cell-based
[1] = tested on: Saussurea involucrata cell culture; experiment: Content of total flavonoids in cultured cells, measured with a spectrophotometer (rutin standard curve)
Description: (2) Method for Determining Total Flavonoids of Saussurea involucrata:
Preparation of control solution: 10 mg of rutin control substance dried to a constant weight at 120° C. was precisely weighed and placed in a 50 mL volumetric flask, an appropriate amount of methanol was added, the mixture was heated in water bath to dissolve the rutin control substance and cooled down, methanol was added to the graduation line, and the mixture was shaken well. Then a control solution was obtained (0.2 mg of anhydrous rutin was contained in 1 mL of control solution);
Preparation of a standard curve: 1 mL, 2 mL, 3 mL, 4 mL, 5 mL and 6 mL of control solutions were precisely weighed and placed in 25 mL volumetric flasks respectively, water was added to 6 mL in each volumetric flask, 1 mL of 5% sodium nitrite solution was added, and the flasks were shaken well and placed for 6 min; 1 mL of 10% aluminum nitrate was added, and the flasks were shaken well and placed for 6 min; 10 mL of sodium hydroxide test solution was added, water was added to the graduation line, and the flasks were shaken well and placed for 15 min; a corresponding reagent was used as a blank, an absorbance was determined at 500 nm, and a standard curve was plotted with the absorbance as a longitudinal coordinate and a concentration as a horizontal coordinate;
Determination: About 0.10 g of coarse powder of this product was taken, precisely weighed and placed in a Soxhlet extractor, about 90 mL of methanol was added, the mixture was heated to reflux until an extracting solution became colorless (the number of reflux times for each sample should not be less than 4 and 2 hours) and transferred into a 50 mL volumetric flask, methanol was added to the graduation line, and the flask was shaken well.

[2] = tested on: Saussurea involucrata cell culture; experiment: Dry cell weight / yield of dried cultures after culturing
Description: (1) Measurement of Dry Cell Weight Cell culture solution was poured into a 120-mesh stainless steel mesh and filtered to harvest cells, the cells were washed with distilled water 3 times, moisture on the surface of the cells was fully absorbed with absorbent paper, a fresh weight was measured, […]

[3] = tested on: Saussurea involucrata cell culture; experiment: Contents of rutin, chlorogenic acid, syringin and 1,5-dicaffeoylquinic acid in cultured cells by HPLC
Description: (3) Content Determination of Phenylpropanoids
Cultured Saussurea involucrata cells dried to a constant weight were taken and ground to fine powder; about […] of fine powder was precisely weighed, placed in a test tube with a stopper and extracted ultrasonically with 50 mL of 20% methanol for 1 h; a weight loss was supplemented with methanol, the mixture was centrifuged at 15,000 r/min for 20 min, a supernatant was taken and filtered through a 0.45 μm filter membrane, and the contents of rutin, chlorogenic acid, syringin and 1,5-dicaffeoylquinic acid were determined simultaneously through HPLC. Shiseido capcell pak C18 MGII chromatographic column (4.6 mm×250 mm, 5 μm);
A mobile phase A was 0.2% of […] (containing 50 mmo/L KH2PO4), a mobile phase B was acetonitrile, and gradient elution was performed. Gradient conditions: 0 min (VA:VB=92:8)-20 min (VA:VB=90:10)-50 min (VA:VB=70:30)-60 min (VA:VB=50:50); flow velocity 1.0 mL/min^−1; column temperature 30° C.; detection wavelength 265 nm (syringin); sample size 20 μL.

[4] = harvested suspension culture, medium, additive, time of addition and culturing time as in each example
[5] = cells dried at 50° C. for 24 h, additive and culture conditions as in each example

| Compound | content of total flavonoids in the cells [1, 4] | weight of cultures after being dried (yield of dry products) [2, 5] | content of 1,5-dicaffeoylquinic acid in the cells [3, 4] | content of chlorogenic acid in the cells [3, 4] | content of rutin in the cells [3, 4] | content of syringin in the cells [3, 4] | content of total flavonoids in the cells [1] | weight of cultures after being dried (yield of dry products) [2] | content of 1,5-dicaffeoylquinic acid in the cells [3] | content of chlorogenic acid in the cells [3] | content of rutin in the cells [3] | content of syringin in the cells [3] |
| --- | --- | --- | --- | --- | --- | --- | --- | --- | --- | --- | --- | --- |
| CC/C=C\CC1C(=O)CCC1CC(=O)OC (centres unmarked) [methyl jasmonate] | more than 24.1 % of the cells (dry weight) | 20.4 g/L | more than 4.12% | more than 2.44% | more than 0.081% | more than 1.89% |  |  |  |  |  |  |
| O=C(O)C=Cc1ccccc1 [cinnamic acid] | more than 22 % of the cells (dry weight) | 15 g/L | more than 2.81% | more than 1.66% | more than 0.066% | more than 1.45% |  |  |  |  |  |  |
| O=C(O)c1ccccc1O [salicylic acid] | more than 21.2 % of the cells (dry weight) | 16.8 g/L | more than 3.55% | more than 1.86% | more than 0.072% | more than 1.09% |  |  |  |  |  |  |
| N[C@@H](Cc1ccccc1)C(=O)O [phenylalanine] | more than 22.7 % of the cells (dry weight) | 15 g/L | more than 2.48% | more than 1.28% | more than 0.078% | more than 2.07% |  |  |  |  |  |  |
| silver nitrate |  | 16 g/L | more than 2.97% | more than 1.47% | more than 0.065% | more than 1.38% |  |  |  |  |  |  |
| O=C(O)C(=O)O [oxalic acid] | more than 19.6 % of the cells (dry weight) | 16 g/L | more than 1.72% | more than 1.27% | more than 0.071% | more than 0.95% |  |  |  |  |  |  |
| CC(=O)[O-].[Na+] [sodium acetate] |  |  |  |  |  |  | more than 21.8 % of the cells (dry weight) | 15 g/L | more than 2.35% | more than 1.79% | more than 0.064% | more than 1.22% |
| N[C@@H](Cc1ccc(O)cc1)C(=O)O [tyrosine] | more than 19.4 % of the cells (dry weight) | 18.2 g/L | more than 2.75% | more than 0.62% | more than 0.062% | more than 1.49% |  |  |  |  |  |  |
